# The source made the active and inactive calls.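 Rule for the calls: active = parasite count per well reduced by over 3 SD from the mean, with host cell number above 80% of untreated; inactive = the rest.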
# Test system: L. donovani amastigotes in THP-1 macrophages, DAPI imaging, 72 h
# Assay: antileishmanial activity in infected macrophages – imaging, THP-1 host macrophages, single concentration (AID 977614);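 note: signal is the parasite per host cell ratio from DAPI stained kinetoplasts and nuclei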
row,SMILES,AC50
1,CN(C[C@H]1[C@H](c2ccccc2)[C@H](CO)N1Cc1ccccn1)S(C)(=O)=O,> 10 µM (inactive)
2,COCC(=O)N(C[C@H]1[C@H](c2ccccc2)[C@H](CO)N1C(=O)NC(C)C)C(C)C,> 10 µM (inactive)
3,C[C@H]1CN([C@@H](C)CO)C(=O)CCCn2nncc2CO[C@@H]1CN(C)C(=O)CCC(F)(F)F,> 10 µM (inactive)
4,C[C@@H]1CN([C@@H](C)CO)C(=O)CCCn2cc(nn2)CO[C@@H]1CN(C)C(=O)Nc1cccc2ccccc12,> 10 µM (inactive)
5,C[C@@H]1CN([C@H](C)CO)C(=O)CCCn2nncc2CO[C@H]1CN(C)Cc1cccc(C(F)(F)F)c1,> 10 µM (inactive)
6,C/C=C/c1ccc([C@@H]2[C@@H](CNC(=O)CC3CC3)N(C(=O)CC)[C@H]2CO)cc1,> 10 µM (inactive)
7,CCCC(=O)N1C[C@H]2[C@@H](c3ccccc31)[C@@H](CO)N2Cc1cocn1,> 10 µM (inactive)
8,C[C@H]1CN([C@@H](C)CO)C(=O)CCCn2cc(nn2)CO[C@H]1CN(C)C(=O)Nc1ccc2c(c1)OCO2,> 10 µM (inactive)
9,COc1ccc(NC(=O)N2C[C@H]3[C@@H](c4ccccc42)[C@H](CO)N3Cc2ccccn2)cc1,> 10 µM (inactive)
10,COc1ccc(C(=O)N2C[C@@H]3[C@H](c4ccccc42)[C@H](CO)N3C(=O)NC(C)C)cc1,> 10 µM (inactive)
11,CCCN1[C@H](CO)[C@H](c2ccc(-c3ccccc3F)cc2)[C@@H]1CNC(=O)C1CCC1,> 10 µM (inactive)
12,COc1ccccc1S(=O)(=O)N(C)C[C@@H]1OCc2cn(nn2)CCCC(=O)N([C@H](C)CO)C[C@H]1C,> 10 µM (inactive)
13,O=C(CN1CCOCC1)N1[C@@H]2CNc3ccccc3[C@@H]2[C@@H]1CO,> 10 µM (inactive)
14,CN(C[C@@H]1[C@H](c2ccccc2)[C@@H](CO)N1Cc1ccccn1)S(C)(=O)=O,> 10 µM (inactive)
15,Cc1noc(C)c1NC(=O)N(C)C[C@@H]1OCc2cn(nn2)CCCC(=O)N([C@@H](C)CO)C[C@@H]1C,> 10 µM (inactive)
16,C[C@@H]1CN([C@@H](C)CO)C(=O)CCCn2cc(nn2)CO[C@@H]1CN(C)C(=O)c1ccc(N2CCN(C)CC2)cc1,> 10 µM (inactive)
17,COc1ccccc1CN1[C@@H]2CN(C(=O)C3CCOCC3)c3ccccc3[C@@H]2[C@@H]1CO,> 10 µM (inactive)
18,C[C@@H]1CN([C@H](C)CO)C(=O)CCCn2nncc2CO[C@@H]1CN(C)S(=O)(=O)c1ccc2c(c1)OCCCO2,> 10 µM (inactive)
19,CCC(=O)N1[C@H](CN(CC)C(=O)c2cccc(F)c2)[C@@H](c2ccccc2)[C@@H]1CO,> 10 µM (inactive)
20,O=C(NC[C@@H]1N[C@@H](CO)[C@H]1c1ccccc1)c1ccccc1F,> 10 µM (inactive)
21,CCN(C[C@H]1[C@H](c2ccccc2)[C@H](CO)N1C(C)=O)C(=O)NC1CCCC1,> 10 µM (inactive)
22,CCC(=O)N1[C@H](CO)[C@H](c2ccccc2)[C@H]1CN(CC)C(=O)c1cccc(F)c1,> 10 µM (inactive)
23,C[C@H](CO)N1C[C@H](C)[C@@H](CN(C)C(=O)Oc2cccc3ccccc23)OCc2cnnn2CCCC1=O,> 10 µM (inactive)
24,COCCN(C[C@H]1[C@H](c2ccccc2)[C@@H](CO)N1C(=O)C1CC1)C(C)=O,> 10 µM (inactive)
25,C[C@H](CO)N1C[C@H](C)[C@@H](CN(C)C(=O)Nc2ccc3c(c2)OCCO3)OCc2cnnn2CCCC1=O,> 10 µM (inactive)
26,O=C(CN1CCOCC1)N1[C@H](CO)[C@@H]2c3ccccc3NC[C@@H]21,> 10 µM (inactive)

row,SMILES,AC50
1,CCCNC(=O)N1C[C@@H]2[C@H](c3ccccc31)[C@H](CO)N2C(=O)CN1CCOCC1,> 10 µM (inactive)
2,CC(=O)N1[C@@H](CO)[C@@H](c2ccccc2)[C@@H]1CN(C)S(=O)(=O)c1ccccc1,> 10 µM (inactive)
3,C[C@@H]1CN([C@H](C)CO)C(=O)CCCn2nncc2CO[C@H]1CN(C)C(=O)CCC(F)(F)F,> 10 µM (inactive)
4,COc1ccccc1S(=O)(=O)N(C)C[C@@H]1OCc2cn(nn2)CCCC(=O)N([C@H](C)CO)C[C@@H]1C,> 10 µM (inactive)
5,C[C@H]1CN([C@@H](C)CO)C(=O)CCCn2nncc2CO[C@H]1CN(C)Cc1cccc2c1OCCCO2,> 10 µM (inactive)
6,COCC(=O)N1[C@@H](CO)[C@@H]2c3ccccc3N(C(=O)Nc3ccccc3Cl)C[C@@H]21,> 10 µM (inactive)
7,OC[C@H]1[C@H]2c3ccccc3NC[C@H]2N1CC1CCOCC1,> 10 µM (inactive)
8,O=C(c1ccncc1)N1C[C@@H]2[C@H](c3ccccc31)[C@H](CO)N2C(=O)CN1CCOCC1,> 10 µM (inactive)
9,COc1ccc(C(=O)N2C[C@H]3[C@@H](c4ccccc42)[C@@H](CO)N3C(=O)NC(C)C)cc1,> 10 µM (inactive)
10,COc1ccccc1NC(=O)N1C[C@H]2[C@@H](c3ccccc31)[C@H](CO)N2CC1CCOCC1,> 10 µM (inactive)
11,CC(C)N(C[C@H]1[C@@H](c2ccccc2)[C@H](CO)N1S(C)(=O)=O)C(=O)CN(C)C,> 10 µM (inactive)
12,O=C(C1CCC1)N1C[C@@H]2[C@H](c3ccccc31)[C@@H](CO)N2C(=O)Nc1cccc(F)c1,> 10 µM (inactive)
13,C[C@H](CO)N1C[C@H](C)[C@@H](CN(C)Cc2ccc3cccnc3c2)OCc2cnnn2CCCC1=O,> 10 µM (inactive)
14,COc1ccc(NC(=O)N(C)C[C@@H]2OCc3cnnn3CCCC(=O)N([C@@H](C)CO)C[C@H]2C)c(OC)c1,> 10 µM (inactive)
15,O=C(Nc1ccccc1Cl)N1C[C@@H]2[C@H](c3ccccc31)[C@@H](CO)N2C(=O)c1cccnc1,> 10 µM (inactive)
16,C/C=C/c1ccc([C@H]2[C@@H](CO)N(S(C)(=O)=O)[C@@H]2CN(C(C)=O)C(C)C)cc1,> 10 µM (inactive)
17,O=C(C1CCCCC1)N1[C@@H]2CN(S(=O)(=O)c3ccccc3)c3ccccc3[C@@H]2[C@@H]1CO,> 10 µM (inactive)
18,COc1ccc(CN(C)C[C@@H]2OCc3cnnn3CCCC(=O)N([C@H](C)CO)C[C@@H]2C)cc1,> 10 µM (inactive)
19,O=C(c1ccccc1F)N1C[C@@H]2[C@H](c3ccccc31)[C@H](CO)N2C(=O)Nc1ccccc1,> 10 µM (inactive)
20,COCC(=O)NC[C@H]1[C@@H](c2ccccc2)[C@@H](CO)N1C(=O)c1ccccc1,> 10 µM (inactive)
21,C[C@@H]1CN([C@@H](C)CO)C(=O)CCCn2cc(nn2)CO[C@@H]1CN(C)C(=O)Nc1ccc2c(c1)OCO2,> 10 µM (inactive)
22,O=C(C1CCCCC1)N1[C@@H](CO)[C@@H]2c3ccccc3NC[C@@H]21,> 10 µM (inactive)
23,C/C=C/c1ccc([C@@H]2[C@@H](CNC(=O)C3CCC3)N(C(=O)NCCC)[C@H]2CO)cc1,> 10 µM (inactive)
24,C[C@@H]1CN([C@@H](C)CO)C(=O)CCCn2nncc2CO[C@@H]1CN(C)C(=O)Nc1ccnc(N2CCOCC2)c1,> 10 µM (inactive)
25,CCC(=O)N1[C@H](CO)[C@H](c2ccc(C#CC3CCCCC3)cc2)[C@@H]1CNC(C)C,> 10 µM (inactive)
26,COCCN(C[C@H]1N[C@H](CO)[C@@H]1c1ccccc1)C(=O)NC1CCCC1,> 10 µM (inactive)

row,SMILES,AC50
1,O=S(=O)(NC[C@@H]1[C@@H](c2ccccc2)[C@@H](CO)N1CC1CC1)c1ccccc1,> 10 µM (inactive)
2,CC(C)N(C[C@H]1[C@@H](c2ccccc2)[C@@H](CO)N1CC1CC1)C(=O)C1CCC1,> 10 µM (inactive)
3,C[C@H]1CN([C@@H](C)CO)C(=O)CCCn2nncc2CO[C@@H]1CN(C)Cc1ccc(C(=O)Nc2ccccc2N)cc1,> 10 µM (inactive)
4,CN1C[C@H]2[C@@H](c3ccccc31)[C@H](CO)N2Cc1ccccc1Cl,> 10 µM (inactive)
5,CC(=O)N1[C@H](CNC(=O)CN(C)C)[C@@H](c2ccc(C3=CCCCC3)cc2)[C@@H]1CO,> 10 µM (inactive)
6,O=C(C1CCC1)N1C[C@H]2[C@@H](c3ccccc31)[C@@H](CO)N2Cc1ccccc1,> 10 µM (inactive)
7,CN1[C@H](CO)[C@@H]2c3ccccc3N(C(=O)C3CCCCC3)C[C@@H]21,> 10 µM (inactive)
8,C[C@@H]1CN([C@H](C)CO)C(=O)CCCn2nncc2CO[C@H]1CN(C)C(=O)c1cc(-c2ccccc2)on1,> 10 µM (inactive)
9,C/C=C/c1ccc([C@H]2[C@@H](CO)N(S(=O)(=O)CC)[C@H]2CN(C)C(=O)CC)cc1,> 10 µM (inactive)
10,Cc1noc(C)c1NC(=O)N(C)C[C@H]1OCc2cn(nn2)CCCC(=O)N([C@H](C)CO)C[C@H]1C,> 10 µM (inactive)
11,CCc1csc(N2[C@H](CO)[C@H](c3ccccc3)[C@@H]2CNC)n1,> 10 µM (inactive)
12,C[C@@H]1CN([C@@H](C)CO)C(=O)CCCn2nncc2CO[C@H]1CN(C)C(=O)CCC(F)(F)F,> 10 µM (inactive)
13,OC[C@@H]1[C@@H]2c3ccccc3NC[C@@H]2N1CC1CCOCC1,> 10 µM (inactive)
14,C[C@H](CO)N1C[C@H](C)[C@@H](CN(C)C(=O)c2cc(-c3ccccc3)on2)OCc2cnnn2CCCC1=O,> 10 µM (inactive)
15,O=C(Nc1ccc(F)cc1)N1[C@@H]2CNc3ccccc3[C@@H]2[C@@H]1CO,> 10 µM (inactive)
16,O=C(c1ccncc1)N1C[C@@H]2[C@H](c3ccccc31)[C@H](CO)N2Cc1ccccc1F,> 10 µM (inactive)
17,O=C(NC[C@H]1N[C@H](CO)[C@@H]1c1ccc(-c2cncnc2)cc1)C1CCCCC1,> 10 µM (inactive)
18,COCC(=O)N1C[C@H]2[C@@H](c3ccccc31)[C@@H](CO)N2C(=O)c1ccccc1F,> 10 µM (inactive)
19,CN(C[C@@H]1N[C@H](CO)[C@H]1c1ccccc1)C(=O)c1ccccn1,> 10 µM (inactive)
20,CN1C[C@@H]2[C@H](c3ccccc31)[C@@H](CO)N2Cc1ccccc1Cl,> 10 µM (inactive)
21,O=S(=O)(c1ccc(F)cc1)N1C[C@@H]2[C@H](c3ccccc31)[C@H](CO)N2Cc1ccccc1Cl,> 10 µM (inactive)
22,CC(C)NC(=O)N1[C@H](CO)[C@@H](c2ccccc2)[C@@H]1CN(C)C(=O)c1cccnc1,> 10 µM (inactive)
23,CC(C)N(C[C@@H]1[C@H](c2ccccc2)[C@@H](CO)N1S(C)(=O)=O)C(=O)CN(C)C,> 10 µM (inactive)
24,C[C@@H]1CN([C@H](C)CO)C(=O)CCCn2nncc2CO[C@H]1CN(C)Cc1cccc2c1OCCCO2,> 10 µM (inactive)
25,CCC(=O)N1[C@@H]2CN(S(=O)(=O)c3ccc(F)cc3)c3ccccc3[C@@H]2[C@@H]1CO,> 10 µM (inactive)

# Source: PubChem BioAssay AID977614 (Broad Institute, 2014)
